Values after ≈ are worked out from the molar mass of the structure shown. Where two headings read alike, the source gives them in different places.
Key:
[1] = tested on: A. baumannii A14; test: MIC without and with sub-inhibitory polymyxin B (Example 4); format: cell-based, Acinetobacter baumannii; details: 2nd experiment
[2] = tested on: strains of A. baumannii and one strain of Acinetobacter sp.; test: MIC with sub-inhibitory concentrations (0.25x MIC) of polymyxin B, panel of Acinetobacter strains (Example 4); format: cell-based; details: for MIC range with PB (0.25x MIC) Oct. 1, 2008 n = 8: […] polymyxin B, ATCC 19606, A329, A390 and A473 not taken; for MIC range with PB (0.25x MIC) Oct. 14, 2008 n = 11: 0.06 μg/ml polymyxin B, all strains except the ATCC strain
[3] = tested on: A. baumannii NCTC 13301; test: MIC without and with sub-inhibitory polymyxin B (Example 4); format: cell-based, Acinetobacter baumannii; details: for MIC: Acinetobacter baumannii, NCTC13301, read-out: MIC +[…] PB
[4] = tested on: A. baumannii ATCC 19606; test: as above; format: cell-based, Acinetobacter baumannii; details: A. baumannii ATCC 19606
[5] = tested on: A. baumannii A401; test: Preliminary MBC without and with sub-inhibitory polymyxin B (Example 4); format: cell-based, Acinetobacter baumannii; details: Acinetobacter baumannii
[6] = tested on: A. baumannii A329; test: MIC without and with sub-inhibitory polymyxin B (Example 4); format: cell-based, Acinetobacter baumannii; details: A. baumannii A329; +0.06 μg/ml PB; 2nd experiment
[7] = tested on: A. baumannii NCTC 13301; test: as above; format: cell-based, Acinetobacter baumannii; details: +[…] PB, 2nd experiment; for MIC: Acinetobacter baumannii, NCTC13301, A. baumannii NCTC 13301, read-out: MIC
[8] = tested on: A. baumannii A329; test: Preliminary MBC without and with sub-inhibitory polymyxin B (Example 4); format: cell-based, Acinetobacter baumannii; details: Acinetobacter baumannii, A329, A. baumannii A329, +0.06 μg/ml PB, 2nd experiment, read-out: MBC
[9] = tested on: A. baumannii A14; test: as above; format: cell-based, Acinetobacter baumannii; details: A. baumannii A14; +0.06 μg/ml polymyxin B; preliminary MBC; 1st experiment
[10] = tested on: A. baumannii A489; test: as above; format: cell-based, Acinetobacter baumannii; details: Acinetobacter baumannii
[11] = tested on: A. baumannii A472; test: as above; format: cell-based, Acinetobacter baumannii; details: Acinetobacter baumannii, preliminary MBC
[12] = tested on: A. baumannii A472; test: MIC without and with sub-inhibitory polymyxin B (Example 4); format: cell-based, Acinetobacter baumannii; details: for MIC: Acinetobacter baumannii
[13] = tested on: A. baumannii J2; test: as above; format: cell-based, Acinetobacter baumannii; details: for MIC without PB/MIC + PB: A. baumannii J2; for MIC: Acinetobacter baumannii
[14] = tested on: A. baumannii A401; test: as above; format: cell-based, Acinetobacter baumannii; details: for MIC: Acinetobacter baumannii
[15] = tested on: A. baumannii J2; test: Preliminary MBC without and with sub-inhibitory polymyxin B (Example 4); format: cell-based, Acinetobacter baumannii; details: Acinetobacter baumannii
[16] = tested on: A. baumannii A390; test: MIC without and with sub-inhibitory polymyxin B (Example 4); format: cell-based, Acinetobacter baumannii; details: +0.06 μg/ml PB, 2nd experiment
[17] = tested on: Acinetobacter sp. (H064200250); test: as above; format: cell-based; details: for MIC: Acinetobacter
[18] = tested on: A. baumannii A14; test: Preliminary MBC without and with sub-inhibitory polymyxin B (Example 4); format: cell-based, Acinetobacter baumannii; details: A. baumannii A14, +0.06 μg/ml PB, 2nd experiment
Description: (§1) The plates were incubated for 18-20 hours at 37° C. The MBC was read as the lowest concentration at which colony growth was ca. 90% less than the positive control (i.e. usually where single colonies or no colonies were observed).

[19] = tested on: A. baumannii NCTC 13301; test: as above; format: cell-based, Acinetobacter baumannii; details: Acinetobacter baumannii
Description: as §1

[20] = tested on: A. baumannii A489; test: MIC without and with sub-inhibitory polymyxin B (Example 4); format: cell-based, Acinetobacter baumannii; details: for MIC without PB/MIC + PB: A. baumannii A489; for MIC: Acinetobacter baumannii
[21] = tested on: A. baumannii A14; test: as above; format: cell-based, Acinetobacter baumannii; details: 1st experiment; for MIC +0.06 μg/ml PB: +0.06 μg/ml polymyxin B
[22] = tested on: A. baumannii A390; test: Preliminary MBC without and with sub-inhibitory polymyxin B (Example 4); format: cell-based, Acinetobacter baumannii; details: Acinetobacter baumannii, A390, A. baumannii A390, +0.06 μg/ml PB, 2nd experiment, read-out: MBC
Description: as §1

[23] = tested on: A. baumannii A473; test: as above; format: cell-based, Acinetobacter baumannii; details: Acinetobacter baumannii, A473, A. baumannii A473, +0.06 μg/ml PB, 2nd experiment, read-out: MBC
Description: as §1

[24] = tested on: A. baumannii ATCC 19606; test: as above; format: cell-based, Acinetobacter baumannii; details: Acinetobacter baumannii
[25] = A. baumannii A14, +0.06 μg/ml PB
[26] = A401, A baumannii A 401, +0.06 μg/ml PB, 2nd experiment, read-out: MBC
[27] = A489, A. baumannii A489, +[…] PB, preliminary MBC, 2nd experiment, read-out: MBC
[28] = A472, A. baumannii A472, +[…] PB, 2nd experiment, read-out: MBC
[29] = A472, A. baumannii A472, +[…] PB, 2nd experiment, read-out: MIC
[30] = A472, read-out: MIC +[…] PB, A. baumannii A472, +[…] polymyxin B, 1st experiment
[31] = J2, A. baumannii J2, +[…] PB, 2nd experiment, read-out: MIC
[32] = J2, A. baumannii J2, +[…] PB, preliminary MBC, 2nd experiment, read-out: MBC
[33] = Acinetobacter spp. H064200250 (OXA51), +[…] PB, 2nd experiment, read-out: MIC
[34] = NCTC13301, A. baumannii NCTC 13301, +[…] PB, preliminary MBC, 2nd experiment, read-out: MBC
[35] = A489, A. baumannii A489, +[…] PB, 2nd experiment, read-out: MIC
[36] = A489, read-out: MIC +[…] PB, A. baumannii A489, +[…] polymyxin B, 1st experiment

C[C@H]1COc2c(N3CCN(C)CC3)c(F)cc3c(=O)c(C(=O)O)cn1c23 [Levofloxacin, reference compound]
MIC [1, 25]: 16.00 µg/mL (≈ 44.3 µM)
MIC without PB/MIC + PB [1, 25]: 2
Range ratios MIC without PB/MIC with PB Oct. 1, 2008 n = 8 ([2]; 1st experiment): 1-4
MIC range with PB (0.25x MIC) Oct. 1, 2008 n = 8 ([2]; 1st experiment): 4 to 32 µg/mL
Range ratios MIC without PB/MIC with PB Oct. 14, 2008 n = 11 ([2]; 2nd experiment): 0.5-8
MIC range with PB (0.25x MIC) Oct. 14, 2008 n = 11 ([2]; 2nd experiment): 4 to 32 µg/mL
MIC without PB/MIC + PB ([3]; A. baumannii NCTC 13301, ratio, PB […], 1st experiment): 2
MIC [3]: 16 µg/mL (≈ 44.3 µM)
MIC without PB/MIC + PB ([4]; +0.06 μg/ml PB, 2nd experiment): 1
MIC without PB/MIC + PB ([4]; ratio, PB 0.06 μg/ml, 1st experiment): 1
MBC [5, 26]: 8 µg/mL (≈ 22.1 µM)
MIC without PB/MIC + PB [6]: 0.5
MIC without PB/MIC + PB ([7]; A. baumannii NCTC 13301): 4
MIC [7]: 8 µg/mL (≈ 22.1 µM)
MBC [8]: 16 µg/mL (≈ 44.3 µM)
MBC +0.06 μg/ml PB [9]: 32 µg/mL
MBC [10, 27]: 4 µg/mL (≈ 11.1 µM)
MBC ([10]; A489, read-out: MBC +[…] PB): 8 µg/mL (≈ 22.1 µM)
MBC [11, 28]: 4 µg/mL (≈ 11.1 µM)
MIC without PB/MIC + PB ([12]; A. baumannii A472, ratio, PB […], 1st experiment): 4
MIC [12, 29]: 4 µg/mL (≈ 11.1 µM)
MIC [12, 30]: 4 µg/mL (≈ 11.1 µM)
MIC without PB/MIC + PB ([13]; +[…] PB, 2nd experiment): 8
MIC without PB/MIC + PB ([13]; ratio, PB […], 1st experiment): 4
MIC [13, 31]: 4 µg/mL (≈ 11.1 µM)
MIC ([13]; J2, read-out: MIC +[…] PB, A. baumannii J2, +[…] polymyxin B, 1st experiment): 8 µg/mL (≈ 22.1 µM)
MIC without PB/MIC + PB ([14]; A baumannii A 401, ratio, PB 0.06 μg/ml, 1st experiment): 1
MBC [15, 32]: 4 µg/mL (≈ 11.1 µM)
MBC ([15]; J2, read-out: MBC +[…] PB): 8 µg/mL (≈ 22.1 µM)
MIC without PB/MIC + PB ([16]; A. baumannii A390): 2
MIC without PB/MIC + PB ([17]; Acinetobacter spp. H064200250 (OXA51), +[…] PB, 2nd experiment): 2
MIC without PB/MIC + PB ([17]; Acinetobacter spp. H064200250, ratio, PB […], 1st experiment): 1
MIC [17, 33]: 8 µg/mL (≈ 22.1 µM)
MBC [18]: 16.00 µg/mL (≈ 44.3 µM)
MBC [19, 34]: 4 µg/mL (≈ 11.1 µM)
MIC without PB/MIC + PB ([20]; +[…] PB, 2nd experiment): 4
MIC without PB/MIC + PB ([20]; ratio, PB […], 1st experiment): 2
MIC [20, 35]: 8 µg/mL (≈ 22.1 µM)
MIC [20, 36]: 8 µg/mL (≈ 22.1 µM)
MIC +0.06 μg/ml PB [21]: 32 µg/mL
MIC without PB/MIC + PB ([21]; ratio, PB 0.06 μg/ml): 1

C[C@@H](O)[C@H]1C(=O)N2C(C(=O)O)=C(S[C@@H]3CN[C@H](C(=O)N(C)C)C3)[C@H](C)[C@H]12 [Meropenem]
MIC ([1]; Acinetobacter baumannii, A14, A. baumannii A14, without PB, value in parentheses, read-out: MIC read with alamar blue): 2 µg/mL (≈ 5.22 µM)
MIC range with PB (0.25x MIC) Oct. 1, 2008 n = 8 ([2]; 1st experiment): <0.125 to 4 µg/mL
MIC range with PB (0.25x MIC) Oct. 14, 2008 n = 11 ([2]; 2nd experiment): ≤0.125 to 32 µg/mL
MIC [3]: 1 µg/mL (≈ 2.61 µM)
MBC [5, 26]: 4 µg/mL (≈ 10.4 µM)
MBC ([5]; A401, read-out: MBC +0.06 μg/ml PB, A baumannii A 401, +0.06 μg/ml polymyxin B, 1st experiment): 4 µg/mL
MIC [7]: 0.25 µg/mL (≈ 0.652 µM)
MBC [8]: 32 µg/mL (≈ 83.4 µM)
MBC +0.06 μg/ml PB [9]: 0.5 µg/mL
MBC [10, 27]: ≤ 0.125 µg/mL
MBC ([10]; A489, read-out: MBC +[…] PB, A. baumannii A489, +[…] polymyxin B, preliminary MBC, 1st experiment): 0.5 µg/mL (≈ 1.3 µM)
MBC [11, 28]: ≤ 0.125 µg/mL
MBC ([11]; A472, read-out: MBC +[…] PB, A. baumannii A472, +[…] polymyxin B, 1st experiment): ≤ 0.125 µg/mL
MIC [12, 29]: ≤ 0.125 µg/mL
MIC [12, 30]: ≤ 0.125 µg/mL
MIC [13, 31]: ≤ 0.125 µg/mL
MIC ([14]; A401, A baumannii A 401, +0.06 μg/ml PB, 2nd experiment, read-out: MIC): 4 µg/mL (≈ 10.4 µM)
MIC ([14]; A401, read-out: MIC +0.06 μg/ml PB, A baumannii A 401, +0.06 μg/ml polymyxin B, 1st experiment): 4 µg/mL
MBC [15, 32]: ≤ 0.125 µg/mL
MBC ([15]; J2, read-out: MBC +[…] PB, A. baumannii J2, +[…] polymyxin B, preliminary MBC, 1st experiment): 1 µg/mL (≈ 2.61 µM)
MIC ([16]; Acinetobacter baumannii, A390, A. baumannii A390, read-out: MIC): 2 µg/mL (≈ 5.22 µM)
MIC [17, 33]: 0.25 µg/mL (≈ 0.652 µM)
MIC ([17]; read-out: MIC +[…] PB, Acinetobacter spp. H064200250, +[…] polymyxin B, 1st experiment): 1 µg/mL (≈ 2.61 µM)
MBC [22]: 2 µg/mL (≈ 5.22 µM)
MBC [18]: 1 µg/mL (≈ 2.61 µM)
MBC [19, 34]: ≤ 0.125 µg/mL
MBC ([19]; NCTC13301, read-out: MBC +[…] PB): 1 µg/mL (≈ 2.61 µM)
MBC [23]: 2 µg/mL (≈ 5.22 µM)
MIC [20, 35]: ≤ 0.125 µg/mL
MIC [20, 36]: 0.5 µg/mL (≈ 1.3 µM)
MIC +0.06 μg/ml PB [21]: 0.5 µg/mL
MBC ([24]; ATCC19606, A. baumannii ATCC 19606, +0.06 μg/ml PB, 2nd experiment, read-out: MBC): 2 µg/mL (≈ 5.22 µM)
MBC ([24]; ATCC19606, read-out: MBC +0.06 μg/ml PB, A. baumannii ATCC 19606, +0.06 μg/ml polymyxin B, 1st experiment): 2 µg/mL

Source: patent publication US20190105367A1, “ANTIMICROBIAL 4-OXOQUINOLIZINES” (Emergent Product Development Gaithersburg Inc., priority 2011, published 2019)
